Results as given in patent US9580430B2, “9H-pyrimido[4,5-B]indoles and related analogs as BET bromodomain inhibitors” (THE REGENTS OF THE UNIVERSITY OF MICHIGAN, priority 2014, dated 2017).

Assays:
MDA-MB-436 = assay: Cell growth inhibition, MDA-MB-436 breast cancer cells (WST-8); format: cell-based; conditions: Homo sapiens, MDA-MB-436, 96 h; 4 days; read-out: IC50 (nM) MDA-MB-436 Cell Line (WST assay)
Outline: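 IC50 was computed from WST-8-based cell counting in MDA-MB-436 cells, with absorbance read at 450 nm.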

recombinant BRD4 BD2 = target: T1, recombinant BRD4 BD2 (Homo sapiens, UniProt O60885); assay: Competitive fluorescence-polarization (FP) binding assay, BRD4 BD2; conditions: competitive FP assay; protein 6 nM, probe […]; read-out: IC50 (nM) BRD4 BD2; note: probe 1.5 nM
T1 construct: for recombinant BRD4 BD1 and BRD4 BD2 proteins
Outline: (§1)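 FP competition with FAM-labelled probe (ZBA248 or BRD-1F) against preincubated protein/probe complex; BD1 at 10 nM and BD2 at 6 nM final, in 100 mM potassium phosphate pH 6.5, 0.01% Triton X-100. 30 min, room temperature. IC50 by nonlinear regression; Ki also derived, using probe Kd from protein saturation.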

MOLM-13 = assay: Cell growth inhibition, MOLM-13 leukemia cells (CellTiter-Glo); format: cell-based; conditions: Homo sapiens, MOLM-13, 96 h; 4 days; read-out: IC50 (nM) MOLM-13 Cell Line (CellTiter-Glo assay)
Outline: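 MOLM-13 leukemia cells treated with compounds; viability read by CellTiter-Glo luminescence after 10-20 min reagent incubation at room temperature. IC50 derived from luminescent signal.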

recombinant BRD4 BD1 = target: T2, recombinant BRD4 BD1 (Homo sapiens, UniProt O60885); assay: Competitive fluorescence-polarization (FP) binding assay, BRD4 BD1; conditions: competitive FP assay; protein 10 nM, probe […]; read-out: IC50 (nM) BRD4 BD1; note: probe 1.5 nM
T2 construct: for recombinant BRD4 BD1 and BRD4 BD2 proteins
Outline: as §1

IC50 (MDA-MB-436) | IC50 (recombinant BRD4 BD2) | IC50 (MOLM-13) | IC50 (recombinant BRD4 BD1) | SMILES
20.4 nM | 5 nM | 3.4 nM | 7.9 nM | COc1cc2c(cc1-c1c(C)noc1C)[nH]c1nc(C)nc(Nc3c4c(nn3C3CC3)CCC4)c12 [Cpd. No. 148, N-(2-Cyclopropyl-2,4,5,6-tetrahydrocyclopenta[c]pyrazol-3-yl)-7-(3,5-dimethylisoxazol-4-yl)-6-methoxy-2-methyl-9H-pyrimido[4,5-b]indol-4-amine]
14.2 nM | 5.4 nM | 7.2 nM | 6.8 nM | COc1cc2c(cc1-c1c(C)noc1C)[nH]c1nc(C)nc(Nc3cc(C4CC4)nn3C(C)C)c12 [Cpd. No. 149, N-(3-Cyclopropyl-1-isopropyl-1H-pyrazol-5-yl)-7-(3,5-dimethylisoxazol-4-yl)-6-methoxy-2-methyl-9H-pyrimido[4,5-b]indol-4-amine]
29.8 nM | 7.2 nM | 7.2 nM | 9.6 nM | COc1cc2c(cc1-c1c(C)noc1C)[nH]c1nc(C)nc(Nc3c4c(nn3CCO)CCC4)c12 [Cpd. No. 150, 2-(3-((7-(3,5-Dimethylisoxazol-4-yl)-6-methoxy-2-methyl-9H-pyrimido[4,5-b]indol-4-yl)amino)-5,6-dihydrocyclopenta[c]pyrazol-2(4H)-yl)ethanol]
34 nM | 5.6 nM | 19 nM | 10.6 nM | COc1cc2c(cc1-c1c(C)noc1C)[nH]c1nc(C)nc(Nc3cc(C4CC4)nn3C3CC3)c12 [Cpd. No. 152, N-(1,3-Dicyclopropyl-1H-pyrazol-5-yl)-7-(3,5-dimethylisoxazol-4-yl)-6-methoxy-2-methyl-9H-pyrimido[4,5-b]indol-4-amine]
1420 nM | 161 nM | 504 nM | 119 nM | COc1cc2c(cc1-c1c(C)noc1C)[nH]c1nc(C)nc(Nc3cn(C)cn3)c12 [Cpd. No. 166, 7-(3,5-dimethylisoxazol-4-yl)-6-methoxy-2-methyl-N-(1-methyl-1H-imidazol-4-yl)-9H-pyrimido[4,5-b]indol-4-amine]
93.9 nM | 23 nM | 63.3 nM | 14.3 nM | CCc1nn(C)c(Nc2nc(C)nc3[nH]c4cc(-c5c(C)noc5C)c(OC)cc4c23)c1C [Cpd. No. 169, 7-(3,5-dimethylisoxazol-4-yl)-N-(3-ethyl-1,4-dimethyl-1H-pyrazol-5-yl)-6-methoxy-2-methyl-9H-pyrimido[4,5-b]indol-4-amine]
222 nM | 56.5 nM | 131 nM | 44.9 nM | COc1cc2c(cc1-c1c(C)noc1C)[nH]c1nc(C)nc(Nc3cnn(C)c3C)c12 [Cpd. No. 170, N-(1,5-dimethyl-1H-pyrazol-4-yl)-7-(3,5-dimethylisoxazol-4-yl)-6-methoxy-2-methyl-9H-pyrimido[4,5-b]indol-4-amine]
1530 nM | 79.5 nM | 609 nM | 153 nM | COc1cc2c(cc1-c1c(C)noc1C)[nH]c1nc(C)nc(Nc3cnc(C)n3C)c12 [Cpd. No. 171, N-(1,2-dimethyl-1H-imidazol-5-yl)-7-(3,5-dimethylisoxazol-4-yl)-6-methoxy-2-methyl-9H-pyrimido[4,5-b]indol-4-amine]
634 nM | 49.5 nM | 453 nM | 57.2 nM | COc1cc2c(cc1-c1c(C)noc1C)[nH]c1nc(C)nc(Nc3ccnn3C)c12 [Cpd. No. 172, 7-(3,5-dimethylisoxazol-4-yl)-6-methoxy-2-methyl-N-(1-methyl-1H-pyrazol-5-yl)-9H-pyrimido[4,5-b]indol-4-amine]
198 nM | 25.1 nM | 121 nM | 31.7 nM | CCn1nccc1Nc1nc(C)nc2[nH]c3cc(-c4c(C)noc4C)c(OC)cc3c12 [Cpd. No. 173, 7-(3,5-dimethylisoxazol-4-yl)-N-(1-ethyl-1H-pyrazol-5-yl)-6-methoxy-2-methyl-9H-pyrimido[4,5-b]indol-4-amine]
118 nM | 117 nM | 108 nM | 142 nM | COc1cc2c(cc1-c1c(C)noc1C)[nH]c1nc(C)nc(Nc3c(C#N)cnn3C)c12 [Cpd. No. 174, 5-((7-(3,5-dimethylisoxazol-4-yl)-6-methoxy-2-methyl-9H-pyrimido[4,5-b]indol-4-yl)amino)-1-methyl-1H-pyrazole-4-carbonitrile]
71 nM | 6.9 nM | 40.5 nM | 28.7 nM | COc1cc2c(cc1-c1c(C)noc1C)[nH]c1nc(C)nc(Nc3ccnn3C(C)C)c12 [Cpd. No. 175, 7-(3,5-dimethylisoxazol-4-yl)-N-(1-isopropyl-1H-pyrazol-5-yl)-6-methoxy-2-methyl-9H-pyrimido[4,5-b]indol-4-amine]
83.3 nM | 10.3 nM | 52.9 nM | 13.7 nM | CCn1ncc(C)c1Nc1nc(C)nc2[nH]c3cc(-c4c(C)noc4C)c(OC)cc3c12 [Cpd. No. 176, 7-(3,5-dimethylisoxazol-4-yl)-N-(1-ethyl-4-methyl-1H-pyrazol-5-yl)-6-methoxy-2-methyl-9H-pyrimido[4,5-b]indol-4-amine]
110 nM | 13.2 nM | 78.6 nM | 7.9 nM | COc1cc2c(cc1-c1c(C)noc1C)[nH]c1nc(C)nc(Nc3sc(C)nc3C)c12 [Cpd. No. 177, N-(7-(3,5-dimethylisoxazol-4-yl)-6-methoxy-2-methyl-9H-pyrimido[4,5-b]indol-4-yl)-2,4-dimethylthiazol-5-amine]
52.9 nM | 0.6 nM | 22.5 nM | 9 nM | COc1cc2c(cc1-c1c(C)noc1C)[nH]c1nc(C)nc(Nc3ccnn3C3CCCC3)c12 [Cpd. No. 178, N-(1-cyclopentyl-1H-pyrazol-5-yl)-7-(3,5-dimethylisoxazol-4-yl)-6-methoxy-2-methyl-9H-pyrimido[4,5-b]indol-4-amine]
330 nM | 116 nM | 2080 nM | 166 nM | COc1cc2c(cc1-c1c(C)noc1C)[nH]c1nc(C)nc(Nc3cn(C)nc3C(F)(F)F)c12 [Cpd. No. 179, 7-(3,5-dimethylisoxazol-4-yl)-6-methoxy-2-methyl-N-(1-methyl-3-(trifluoromethyl)-1H-pyrazol-4-yl)-9H-pyrimido[4,5-b]indol-4-amine]
22.9 nM | 10.2 nM | 22.2 nM | 4.4 nM | COc1cc2c(cc1-c1c(C)noc1C)[nH]c1nc(C)nc(Nc3cn(C)nc3C(C)C)c12 [Cpd. No. 181, 7-(3,5-dimethylisoxazol-4-yl)-N-(3-isopropyl-1-methyl-1H-pyrazol-4-yl)-6-methoxy-2-methyl-9H-pyrimido[4,5-b]indol-4-amine]
98 nM | 23.6 nM | 34.8 nM | 15.6 nM | CCc1nn(C)cc1Nc1nc(C)nc2[nH]c3cc(-c4c(C)noc4C)c(OC)cc3c12 [Cpd. No. 182, 7-(3,5-dimethylisoxazol-4-yl)-N-(3-ethyl-1-methyl-1H-pyrazol-4-yl)-6-methoxy-2-methyl-9H-pyrimido[4,5-b]indol-4-amine]
83.7 nM | 6.1 nM | 29.7 nM | 9.6 nM | COc1cc2c(cc1-c1c(C)noc1C)[nH]c1nc(C)nc(Nc3ccnn3C(C)(C)C)c12 [Cpd. No. 183, N-(1-(tert-butyl)-1H-pyrazol-5-yl)-7-(3,5-dimethylisoxazol-4-yl)-6-methoxy-2-methyl-9H-pyrimido[4,5-b]indol-4-amine]
132 nM | 55.1 nM | 27.1 nM | 33.9 nM | CCn1nc(C)c(C)c1Nc1nc(C)nc2[nH]c3cc(-c4c(C)noc4C)c(OC)cc3c12 [Cpd. No. 186, 7-(3,5-dimethylisoxazol-4-yl)-N-(1-ethyl-3,4-dimethyl-1H-pyrazol-5-yl)-6-methoxy-2-methyl-9H-pyrimido[4,5-b]indol-4-amine]
121 nM | 10.9 nM | 38.8 nM | 10.5 nM | COc1cc2c(cc1-c1c(C)noc1C)[nH]c1nc(C)nc(Nc3c(C)c(C)nn3C3CCC3)c12 [Cpd. No. 187, N-(1-cyclobutyl-3,4-dimethyl-1H-pyrazol-5-yl)-7-(3,5-dimethylisoxazol-4-yl)-6-methoxy-2-methyl-9H-pyrimido[4,5-b]indol-4-amine]
12.8 nM | 3.7 nM | 3.2 nM | 2.1 nM | COc1cc2c(cc1-c1c(C)noc1C)[nH]c1nc(C)nc(Nc3c(C)c(C)nn3C3CC3)c12 [Cpd. No. 188, N-(1-cyclopropyl-3,4-dimethyl-1H-pyrazol-5-yl)-7-(3,5-dimethylisoxazol-4-yl)-6-methoxy-2-methyl-9H-pyrimido[4,5-b]indol-4-amine]
422 nM | 114 nM | 114 nM | 30.1 nM | COc1cc2c(cc1-c1c(C)noc1C)[nH]c1nc(C)nc(Nc3cc(C)nn3C3CC3)c12 [Cpd. No. 192, N-(1-cyclopropyl-3-methyl-1H-pyrazol-5-yl)-7-(3,5-dimethylisoxazol-4-yl)-6-methoxy-2-methyl-9H-pyrimido[4,5-b]indol-4-amine]
